For data set [1], the system named is α-mannosidase gene expression. Briefly: Geraniol/ACC treatment of seedlings, real-time RT-PCR of mannosidase expression. It is filed as in vivo, tomato (Pusa Ruby). The conditions noted are these: for regulation of α-mannosidase expression: rin and/or wild type, relative to control. The source says:
Geraniol is an acyclic dietary monoterpene, having in vitro and in vivo antitumor activity against various cancer cell lines and is therefore considered as a new class of agents for cancer chemoprevention. It was also reported that geraniol interferes with the membrane functions of Candida albicans and Saccharomyces cervisiae. […] This instigated us to further analyze the role of geraniol on α-mannosidase induction in pleiotropic rin mutant. The rin seedlings were fed with 10% geraniol and samples collected.
RNA was isolated according to the Lithium chloride method and quantified using nanodrop (ND-100). 5 μg of total RNA was reverse transcribed to cDNA using superscript II (Invitrogen). Quantitative RT-PCR was performed using light Cycler Version 4.05 (Roche diagnostics) with cyber green. The cycle consisted of initial 10 min Taq activation at 95° C. followed by 45 cycles, consisting of 10 s at 94° C., 10 s at 55° C. and 10 s at 72° C. Then the melt curve analysis was performed to verify the fidelity of the amplification. Using the 2^−ΔΔ CT method, the data is presented as the fold change in gene expression normalized to an endogenous reference gene and relative to the control. The gene encoding actin was used as the endogenous control.
Pusa Ruby seeds were sterilized and germinated on MS medium. After 15 days the seedlings were transferred to a liquid media containing 10 mM geraniol in 20% DMSO or 1 mM ACC (1-aminocyclopropane-1-carboxylic acid) in water. The RNA was isolated from the harvested sample and reverse transcribed to cDNA for real-time RT-PCR analysis. Expression was calculated relative to the control seedlings (0 hr).
A general note: In qPCR the cycle at which signal appears reflects the starting amount.

Data set [2] has as its target T1, tomato α-mannosidase (Solanum lycopersicum, UniProt D3TI68). Kind of data set: N-linked oligosaccharide cleavage, HPAE chromatography. Type of data set: biochemical. The settings on record: incubated at 37° C. overnight, Carbopac PA-1 column. Here is the method: (§1) The temperature and pH optimum for the enzyme was 45° C. and pH 6.0, respectively. […] To identify the nature of the tomato α-mannosidase it was resolved on SDS-PAGE and subjected to PAS staining, the protein stained positive for glycoproteins. […] In order to correlate specific activity at particular ripening stage with the protein accumulation, immunoblot analysis of all the stages was done using polyclonal antibody raised against 70 kD subunit of the protein homologus to α-mannosidase. […] Our finding was further reinforced by a report in Arabidopsis which classified α-mannosidase homologue (Q8LPJ3) into cell wall protein with a signal peptide for secretion. To decipher the role of α-mannosidase on N-glycans and their processing, we targeted three N-linked oligosaccharides (Oligomannose-3, Oligomannose-5 and Oligomannose-9) commonly found in the fruit pericarp. To verify its action on N-glycans, α-mannosidase was incubated with N-linked oligosaccharides at 37° C. overnight and the reaction mixture was resolved on Carbopac PA-1 column.
One μg of protein was incubated with 100 ng each of N-linked oligosaccharides (Dextra, U.K) at 37° C. overnight and the sample was filtered through PVDF membrane to remove the enzyme. 10 μl of the filtered sample was used for the analysis. An HPAE-PAD system (Dionex DX 500 BioLC) equipped with a gradient pump (GP 40), an anion exchange column (Carbopac PA-1, 4×250 mm) an eluant degas module (EDM-2) for pressurizing the eluants with argon was used for the analysis of monosaccharides. The separated monosaccharides were detected by an ED 40 detector equipped with a gold electrode and an Ag/AgCl reference electrode. The resulting chromatographic data was integrated and plotted using a PC based oracle 2 data acquisition system (Indtech Analytical, Bombay), The standard (mannose) was injected at a concentration of 100 nmoles before and after the analysis of each sample to confirm the results. This confirmed the N-glycan processing ability of mannosidase

The conditions of data set [3]: cited from earlier work.
The target of data set [4] is T1, tomato α-mannosidase. Briefly: Mannosidase enzyme assay and biochemical characterization. On the procedure: as §1
Mannosidase was assayed in one ml of the reaction mixture consisting of 940 μl of MQ, 20 μl of 20 mM substrate (pNP-α-D-mannopyrinoside) and 20 μl aliquot of the enzyme at 37° C. for 15 min along with a blank devoid of the enzyme. The reaction was stopped by adding of 40 μl of 0.5M Na2CO3. The colour developed as result of pNP release was recorded at 405 nm and quantified using a standard curve.

Substrate in data set [5]: O=[N+]([O-])c1ccc(O[C@H]2O[C@H](CO)[C@@H](O)[C@H](O)[C@@H]2O)cc1
Described as above. The arrangement: species or system tomato (Solanum lycopersicum). The conditions noted are these: other: purified tomato enzyme; pH 6.0. Here is the method:
as §1
Mannosidase was assayed in one ml of the reaction mixture consisting of 940 μl of MQ, 20 μl of 20 mM substrate (pNP-α-D-mannopyrinoside) and 20 μl aliquot of the enzyme at 37° C. for 15 min along with a blank devoid of the enzyme. […] The colour developed as result of pNP release was recorded at 405 nm and quantified using a standard curve.

Entries after “also recorded” stand apart in the source; their conditions may differ.

By Km is commonly meant the concentration of substrate that gives half-maximal velocity.

For the molecule `NC1(C(=O)O)CC1` [ACC, 1-aminocyclopropane-1-carboxylic acid], the “regulation of α-mannosidase expression” value in data set [1] (seedlings) is given as “up regulate”.
`CC(=O)N[C@H]1[C@H](O[C@H]2[C@H](O)[C@@H](NC(C)=O)C(O)O[C@@H]2CO)O[C@H](CO)[C@@H](O[C@@H]2O[C@H](CO[C@H]3O[C@H](CO)[C@@H](O)[C@H](O)[C@@H]3O)[C@@H](O)[C@H](O[C@H]3O[C@H](CO)[C@@H](O)[C@H](O)[C@@H]3O)[C@@H]2O)[C@@H]1O` (stereo partly drawn) [Oligomannose-3]: the “cleavage by α-mannosidase” value in data set [2] is “able to cleave terminal mannose residue/s”.
On the same count and under the same terms, the value for `CC(=O)N[C@H]1[C@H](O[C@H]2[C@H](O)[C@@H](NC(C)=O)C(O)O[C@@H]2CO)O[C@H](CO)[C@@H](O[C@@H]2O[C@H](CO[C@H]3O[C@H](CO[C@H]4O[C@H](CO)[C@@H](O)[C@H](O)[C@@H]4O)[C@@H](O)[C@H](O[C@H]4O[C@H](CO)[C@@H](O)[C@H](O)[C@@H]4O)[C@@H]3O)[C@@H](O)[C@H](O[C@H]3O[C@H](CO)[C@@H](O)[C@H](O)[C@@H]3O)[C@@H]2O)[C@@H]1O` (stereo partly drawn) [Oligomannose-5] was “able to cleave terminal mannose residue/s”; that for `CC(=O)N[C@H]1[C@H](O[C@H]2[C@H](O)[C@@H](NC(C)=O)C(O)O[C@@H]2CO)O[C@H](CO)[C@@H](O[C@@H]2O[C@H](CO[C@H]3O[C@H](CO[C@H]4O[C@H](CO)[C@@H](O)[C@H](O)[C@@H]4O[C@H]4O[C@H](CO)[C@@H](O)[C@H](O)[C@@H]4O)[C@@H](O)[C@H](O[C@H]4O[C@H](CO)[C@@H](O)[C@H](O)[C@@H]4O[C@H]4O[C@H](CO)[C@@H](O)[C@H](O)[C@@H]4O)[C@@H]3O)[C@@H](O)[C@H](O[C@H]3O[C@H](CO)[C@@H](O)[C@H](O)[C@@H]3O[C@H]3O[C@H](CO)[C@@H](O)[C@H](O)[C@@H]3O[C@H]3O[C@H](CO)[C@@H](O)[C@H](O)[C@@H]3O)[C@@H]2O)[C@@H]1O` (stereo partly drawn) [Oligomannose-9] was “able to cleave terminal mannose residue/s”.
Regarding `CC(C)=CCC/C(C)=C/CO` [geraniol], in data set [1] (rin mutant seedlings fed with 10% geraniol, after 30 min), the “α-mannosidase transcript up regulated” value is “up to 6 fold”. Besides, in data set [1] (seedlings, geraniol in 20% DMSO, after 30 min, compared to control (DMSO only)), the “up-regulation in mannosidase gene expression” value is reported as “up to 3 fold”. Besides, the “regulation of α-mannosidase expression” value in data set [1] (seedlings) is recorded as “upregulated; also recorded: induced”. In addition, in data set [3], the solubility in water entry was “not soluble in water”.

B1: tomato α-mannosidase: enzyme purified from pericarp of breaker stage tomato; SEQ ID NO: 2 (protein, listed as Solanum lycopersicum)
chain: MKNMGKFEIWFLILMVCGLWVVEAKYMVYNTSQGIVSGKLNVHLVPHTHDDVGWLKTVDQYYVGSNNSIQVACVQNVLDSLIPALLADKNRKFIYVEQAFFQRWWRNQSPGMQSTVKQLVNSGQLESINGGWCMHDEAATHYIDMIDQTTLGHKYIKQQFNVTPRIGWQIDPFGTFCCSGIPSGSKGWIRLSFLWDALTTKDREKRKIEKSLEVIWRGSKSLSSSTQIFSGAFPQNYEPPSKFYFEVNDDNSLPVQDDVNLFDYNVQERVNDFVAAALSQANITRTNHIMWTMGTDFKYQYAHTWFRNMDKLIHYVNQDGRVNALYSSPSIYTDAKYALDESWPLKTDDYFPYADRINAYWTGYFTSRPALKLYVRMMSGYYLAARQLEFFKGRIETGPTTEILADALAIAQHHDAVSGTPKQHVADDYAKRLFIGYKQAEDLVSNSLACMVESASASGCKNPQINFKQCPLLNISYCPPTEADLAPGKKLVVVVYNALGWKRTDVVRIPVVNKNVIVEDSTGKEIESQLLPIVKESIVIRNYYAAAYFGESPTSSPKYWLVFTATVPPLGFSSYVITSGKQAVAASIPQTFYKTDGSQSDAVEVGPGNLKLLYSANGAKFTQYFNKRNQVRSSLEQSFSYYSADDGSKDDYKDIQASGAYVFRPNGSFPIHPEGKVPATILRGPLLDEVHQNINSWIYQITRVYKEKEHVEVEFTVGPIPIDNGIGKELVTQIQTDIKSNKTFYTDSNGRDFLKRVRDYRADWDLQVNQPAAGNYYPINLGLFLKDNNNEFSVLVDRSVGGSSLVDGQLELMLHRRLLNDDGRGVAEALNETVCALGKCMGLTVQGKYYIRIDSLGEGAKWRRSFGQEIYSPLLLAFTEQDGDKFTKFPVPTFTGMDPSYSLPDNVAIITLQELEDHTVLLRLAHLYEVDEDKDLSTKASVELKRLFPKRKINKIREMSLSANQERVEMEKKRLKWKAEAPSDLRDVARGGPVDPTKLMVELAPMEIRTFVIDLSQSVPEGWKSHMSL
modifications: Protein sequence of alpha mannosidase
B1: in data set [4], the pH optimum is reported as 6.0 and the temperature optimum was 45 °C. In addition, in data set [4] (for 1 hr), the “thermal stability without considerable reduction in the activity” value is at most 60 °C.

B2: tomato α-mannosidase (Solanum lycopersicum) (protein)
chain: KYMVYNTSQGIVSGKLNVHLVPHTHDDVGWLKTVDQYYVGSNNSIQVACVQNVLDSLIPALLADKNRKFIYVEQAFFQRWWRNQSPGMQSTVKQLVNSGQLESINGGWCMHDEAATHYIDMIDQTTLGHKYIKQQFNVTPRIGWQIDPFGTFCCSGIPSGSKGWIRLSFLWDALTTKDREKRKIEKSLEVIWRGSKSLSSSTQIFSGAFPQNYEPPSKFYFEVNDDNSLPVQDDVNLFDYNVQERVNDFVAAALSQANITRTNHIMWTMGTDFKYQYAHTWFRNMDKLIHYVNQDGRVNALYSSPSIYTDAKYALDESWPLKTDDYFPYADRINAYWTGYFTSRPALKLYVRMMSGYYLAARQLEFFKGRIETGPTTEILADALAIAQHHDAVSGTPKQHVADDYAKRLFIGYKQAEDLVSNSLACMVESASASGCKNPQINFKQCPLLNISYCPPTEADLAPGKKLVVVVYNALGWKRTDVVRIPVVNKNVIVEDSTGKEIESQLLPIVKESIVIRNYYAAAYFGESPTSSPKYWLVFTATVPPLGFSSYVITSGKQAVAASIPQTFYKTDGSQSDAVEVGPGNLKLLYSANGAKFTQYFNKRNQVRSSLEQSFSYYSADDGSKDDYKDIQASGAYVFRPNGSFPIHPEGKVPATILRGPLLDEVHQNINSWIYQITRVYKEKEHVEVEFTVGPIPIDNGIGKELVTQIQTDIKSNKTFYTDSNGRDFLKRVRDYRADWDLQVNQPAAGNYYPINLGLFLKDNNNEFSVLVDRSVGGSSLVDGQLELMLHRRLLNDDGRGVAEALNETVCALGKCMGLTVQGKYYIRIDSLGEGAKWRRSFGQEIYSPLLLAFTEQDGDKFTKFPVPTFTGMDPSYSLPDNVAIITLQELEDHTVLLRLAHLYEVDEDKDLSTKASVELKRLFPKRKINKIREMSLSANQERVEMEKKRLKWKAEAPSDLRDVARGGPVDPTKLMVELAPMEIRTFVIDLSQSVPEGWKSHMSL
As to B2, the Km in data set [5] was found to be 4.6 mM.

The record behind these values is patent publication US8962918B2, “Polynucleotide sequence of fruit softening associated A-mannosidase and its uses for enhancing fruit shelf life” (National Institute of Plant Genome Research, priority 2008, dated 2015).
